Results on 60 compounds are retold here after patent publication US20170326125A1, “MULTISUBSTITUTED AROMATIC COMPOUNDS AS INHIBITORS OF THROMBIN” (VERSEON CORPORATION, priority 2016, published 2017).

SMILES strings stand for the structures.

As a reminder, the IC50 is the concentration needed to halve the response being measured. A higher IC50 goes with a need for much substance.

For one test, the target named is T1, Human thrombin (Homo sapiens, UniProt P00734).
T1 construct: purchased Haematologic Technologies Inc
The test can be described thus: Inhibition of the protease activity of thrombin (chromogenic substrate S-2238). Format: biochemical. Particulars: Table C; 3 nM thrombin, 125 μM S-2238, 10 min pre-incubation, RT. As for the experimental part:
Compounds described herein can be assayed, by a variety of methods known in the art and described herein, for inhibition of biological activity, e.g., protease activity, of a variety of proteins, e.g., thrombin.
The thrombin activity reported herein (e.g., Table A) was obtained as follows. Human thrombin was obtained from Haematologic Technologies Inc. The chromogenic
Thrombin was assayed in buffer containing 0.05 M Tris (pH 7.4), 0.015 M NaCl and 0.01% PEG-8000. The final concentration of enzyme used was 3 nM thrombin. […] All assays were performed in 96-well microtiter plates at room temperature (RT). […] Inhibitor IC50 values were determined by adding test compound as ten point, three-fold serial dilutions in buffer solution, as known in the art. The plate was read at 10 minutes after substrate addition. The IC50 was calculated by plotting the percent (%) inhibition against compound concentration and fitting the data to a constrained four parameter sigmoidal curve, as known in the art.
As to `Nc1nc(-c2cccnc2)n[nH]1` [Cmpd 1, 3-(pyridin-3-yl)-1H-1,2,4-triazol-5-amine], the IC50 is greater than 1000 nM. Consider `Nc1n[nH]c(-c2ccccn2)n1` [Cmpd 2, 3-(pyridin-2-yl)-1H-1,2,4-triazol-5-amine], for which the IC50 is greater than 1000 nM.

`Nc1n[nH]c(-c2ccncc2)n1` [Cmpd 3, 3-(pyridin-4-yl)-1H-1,2,4-triazol-5-amine]: the IC50 is greater than 1000 nM. `CCC(=O)n1nc(-c2cccnc2)nc1NCc1cccc(F)c1` [Cmpd 8, 1-(5-[(3-fluorophenyl)methyl]amino-3-(pyridin-3-yl)-1H-1,2,4-triazol-1-yl)propan-1-one] gave an IC50 of 100 to 1000 nM. Compound `Nc1nc(-c2ccco2)n[nH]1` [Cmpd 25, 3-(furan-2-yl)-1H-1,2,4-triazol-5-amine] displayed a half-inhibitory concentration (IC50) greater than 1000 nM.

The same test, now with this note: inhibition of the protease activity of thrombin; class symbols a/b/c.
With `Fc1ccc(CNc2nc(-c3cccnc3)n[nH]2)cc1` [Cmpd 4], the IC50 is greater than 1000 nM. Compound `CCC(=O)n1nc(-c2cccnc2)nc1NCc1ccccc1F` [Cmpd 9] returned an IC50 of 100 to 1000 nM. `CCC(=O)n1nc(-c2cccnc2)nc1NCc1ccc(C#N)cc1` [Cmpd 10] gave an IC50 greater than 1000 nM. In turn, `O=C(c1ccccc1)n1nc(-c2ccncc2)nc1NCc1ccc(F)cc1` [Cmpd 14] registered an IC50 of less than 100 nM.

As for `O=C(c1ccsc1)n1nc(-c2ccncc2)nc1NCc1ccc(F)cc1` [Cmpd 15], the IC50 is less than 100 nM. The same measure, in the same setting: in the case of `COc1ccc(CNc2nc(-c3ccncc3)nn2C(=O)C(C)(C)C)cc1` [Cmpd 16] it was less than 100 nM; in that of `O=C(N1CCOCC1)n1nc(-c2cccnc2)nc1NCc1ccc(F)cc1` [Cmpd 17], greater than 1000 nM; in that of `O=C(Nc1ccccc1F)n1nc(-c2cccnc2)nc1NCc1ccc(F)cc1` [Cmpd 18], greater than 1000 nM. `CNC(=O)n1nc(-c2cccnc2)nc1NCc1ccc(F)cc1` [Cmpd 19] yielded an IC50 greater than 1000 nM. As for `COC(=O)n1nc(-c2cccnc2)nc1NCc1ccc(F)cc1` [Cmpd 20], the IC50 lay within 100 to 1000 nM. As to `O=C(Cn1nc(-c2cccnc2)nc1NCc1ccc(F)cc1)c1ccccc1` [Cmpd 21], the IC50 was greater than 1000 nM. As for `CCC(=O)n1nc(-c2cccnc2)nc1NCCc1ccccc1` [Cmpd 22], the IC50 is greater than 1000 nM. In the case of `CCC(=O)n1nc(-c2cccnc2)nc1NCCN1CCOCC1` [Cmpd 23], the IC50 was greater than 1000 nM. Consider `CCC(=O)n1nc(-c2cccnc2)nc1N(C)C` [Cmpd 24], for which the IC50 is greater than 1000 nM.

For `COc1ccccc1C(=O)n1nc(-c2ccco2)nc1NCc1ccc(F)cc1` [Cmpd 26], the IC50 was less than 100 nM. `COc1ccccc1C(=O)n1nc(-c2cccs2)nc1NCc1ccc(F)cc1` [Cmpd 27] gave an IC50 of 100 to 1000 nM. Regarding `COc1ccccc1C(=O)n1nc(-c2ccncn2)nc1NCc1ccccc1` [Cmpd 33], the IC50 was less than 100 nM. With `COc1ccccc1C(=O)n1nc(-c2cncnc2)nc1NCc1ccccc1` [Cmpd 34], the IC50 was less than 100 nM. In turn, `COc1ccccc1C(=O)n1nc(-c2ncccn2)nc1NCc1ccccc1` [Cmpd 35] had an IC50 of less than 100 nM. Compound `Cc1c(-c2ccccc2)nn(C(=O)C(C)(C)C)c1NCc1ccc(F)cc1` [Cmpd 38] showed an IC50 greater than 1000 nM. As for `O=C(c1ccccc1Cl)n1nc(-c2ccccn2)cc1NCc1ccc(F)cc1` [Cmpd 41], the IC50 lay in the range of 100 to 1000 nM. Turning to `Nc1cc(-c2ccccn2)nn1-c1ccccc1Cl` [Cmpd 42], the IC50 is greater than 1000 nM. Consider `O=C(Nc1cc(-c2ccccn2)nn1-c1ccccc1Cl)c1ccc(F)cc1` [Cmpd 43], for which the IC50 was greater than 1000 nM. The same measure, in the same setting: next, `Fc1ccc(CN(Cc2ccc(F)cc2)c2cc(-c3ccccn3)nn2-c2ccccc2Cl)cc1` [Cmpd 44]: greater than 1000 nM; `Fc1ccc(CNc2cc(-c3ccccn3)nn2-c2ccccc2Cl)cc1` [Cmpd 45]: greater than 1000 nM; `CCOC(=O)c1cn(-c2ccccn2)nc1NCc1ccc(F)cc1` [Cmpd 46]: greater than 1000 nM. On to `O=C(O)c1cn(-c2ccccn2)nc1NCc1ccc(F)cc1` [Cmpd 47], for which the IC50 was greater than 1000 nM. On to `CON(C)C(=O)c1cn(-c2ccccn2)nc1NCc1ccc(F)cc1` [Cmpd 48], for which the IC50 was greater than 1000 nM.

In turn, `CN(C)C(=O)c1cn(-c2ccccn2)nc1NCc1ccc(F)cc1` [Cmpd 49] showed an IC50 greater than 1000 nM.

The compound `CCC(=O)c1cn(-c2ccccn2)nc1NCc1ccc(F)cc1` [Cmpd 50] displayed an IC50 greater than 1000 nM. `CCOC(=O)c1cc(-c2ccccn2)nn1CCc1ccc(F)cc1` [Cmpd 51]: the IC50 is greater than 1000 nM.

Turning to `O=C(O)c1cc(-c2ccccn2)nn1CCc1ccc(F)cc1` [Cmpd 52], the IC50 was greater than 1000 nM.

On to `CON(C)C(=O)c1cc(-c2ccccn2)nn1CCc1ccc(F)cc1` [Cmpd 53], for which the IC50 was greater than 1000 nM. In the case of `O=C(c1cc(-c2ccccn2)nn1CCc1ccc(F)cc1)N1CCCCC1` [Cmpd 54], the IC50 is greater than 1000 nM.

For the compound `CCC(O)c1cc(-c2ccccn2)nn1CCc1ccc(F)cc1` (stereo not drawn) [Cmpd 55], the half-maximal inhibitory concentration (IC50) was greater than 1000 nM. With `CCOC(=O)c1cc(-c2ccccn2)n(CCc2ccc(F)cc2)n1` [Cmpd 57], the IC50 is greater than 1000 nM. With `O=C(O)c1cc(-c2ccccn2)n(CCc2ccc(F)cc2)n1` [Cmpd 58], the IC50 is greater than 1000 nM. Compound `O=C(c1cc(-c2ccccn2)n(CCc2ccc(F)cc2)n1)N1CCCCC1` [Cmpd 59] returned an IC50 greater than 1000 nM. `CC(=O)c1cn(-c2ccccn2)nc1NCc1ccc(F)cc1` [Cmpd 60, 1-(3-[(4-fluorophenyl)methyl]amino-1-(pyridin-2-yl)-1H-pyrazol-4-yl)ethan-1-one] showed a concentration for half-maximal inhibition (IC50) greater than 1000 nM. Turning to `CC(=O)c1cn(-c2ccccc2)nc1NCc1ccc(F)cc1` [Cmpd 61, 1-(3-[(4-fluorophenyl)methyl]amino-1-phenyl-1H-pyrazol-4-yl)ethan-1-one], the IC50 was greater than 1000 nM. `CCC(=O)c1cn(-c2ccccc2)nc1NCc1ccc(F)cc1` [Cmpd 62, 1-(3-[(4-fluorophenyl)methyl]amino-1-phenyl-1H-pyrazol-4-yl)propan-1-one]: the IC50 was greater than 1000 nM. With `CCC(=O)n1nc(-c2ccco2)nc1NCc1ccc(F)cc1` [Cmpd 63, 1-(5-[(4-fluorophenyl)methyl]amino-3-(furan-2-yl)-1H-1,2,4-triazol-1-yl)propan-1-one], the IC50 is less than 100 nM.

In turn, `O=C(Cc1ccccc1)n1nc(-c2ccccn2)nc1NCc1ccc(F)cc1` [Cmpd 66, 1-(5-[(4-fluorophenyl)methyl]amino-3-(pyridin-2-yl)-1H-1,2,4-triazol-1-yl)-2-phenylethan-1-one] returned a concentration for half-maximal inhibition (IC50) of less than 100 nM. With `CC(C)CC(=O)n1nc(-c2ccccn2)nc1NCc1ccc(F)cc1` [Cmpd 67, 1-(5-[(4-fluorophenyl)methyl]amino-3-(pyridin-2-yl)-1H-1,2,4-triazol-1-yl)-3-methylbutan-1-one], the IC50 was less than 100 nM. The compound `O=C(CCc1ccccc1)n1nc(-c2ccccn2)nc1NCc1ccc(F)cc1` [Cmpd 68, 1-(5-[(4-fluorophenyl)methyl]amino-3-(pyridin-2-yl)-1H-1,2,4-triazol-1-yl)-3-phenylpropan-1-one] showed an IC50 of less than 100 nM. The compound `CCCC(=O)n1nc(-c2ccccn2)nc1NCc1ccc(F)cc1` [Cmpd 69, 1-(5-[(4-fluorophenyl)methyl]amino-3-(pyridin-2-yl)-1H-1,2,4-triazol-1-yl)butan-1-one] yielded an IC50 of less than 100 nM. Same read-out and setting: in the case of `CC(C)(C)C(=O)n1nc(-c2cccnc2)nc1NCc1ccc(F)cc1` [Cmpd 71, 1-(5-[(4-fluorophenyl)methyl]amino-3-(pyridin-3-yl)-1H-1,2,4-triazol-1-yl)-2,2-dimethylpropan-1-one] it was less than 100 nM. On the same count and under the same terms, in the case of `CC(C)(C)C(=O)Cn1nc(-c2cccnc2)nc1NCc1ccc(F)cc1` [Cmpd 72, 1-(5-[(4-fluorophenyl)methyl]amino-3-(pyridin-3-yl)-1H-1,2,4-triazol-1-yl)-3,3-dimethylbutan-2-one] it was greater than 1000 nM; in that of `CC(=O)Cn1nc(-c2cccnc2)nc1NCc1ccc(F)cc1` [Cmpd 73, 1-(5-[(4-fluorophenyl)methyl]amino-3-(pyridin-3-yl)-1H-1,2,4-triazol-1-yl)propan-2-one], greater than 1000 nM. For `CCC(=O)n1nc(-c2cccnc2)cc1NCc1ccc(F)cc1` [Cmpd 74, 1-(5-[(4-fluorophenyl)methyl]amino-3-(pyridin-3-yl)-1H-pyrazol-1-yl)propan-1-one], the half-inhibitory concentration (IC50) is greater than 1000 nM. Turning to `CC(C)(C)C(=O)n1nc(-c2ccncc2)nc1NCc1ccc(F)cc1` [Cmpd 75, 1-(5-[(4-fluorophenyl)methyl]amino-3-(pyridin-4-yl)-1H-1,2,4-triazol-1-yl)-2,2-dimethylpropan-1-one], the IC50 is less than 100 nM. The same measure, in the same setting: next, `CC(C)C(=O)n1nc(-c2ccncc2)nc1NCc1ccc(F)cc1` [Cmpd 76, 1-(5-[(4-fluorophenyl)methyl]amino-3-(pyridin-4-yl)-1H-1,2,4-triazol-1-yl)-2-methylpropan-1-one]: less than 100 nM. Compound `O=C(Cc1ccccc1)n1nc(-c2ccncc2)nc1NCc1ccc(F)cc1` [Cmpd 77, 1-(5-[(4-fluorophenyl)methyl]amino-3-(pyridin-4-yl)-1H-1,2,4-triazol-1-yl)-2-phenylethan-1-one] had a half-maximal inhibitory concentration (IC50) of less than 100 nM. Consider `CC(C)CC(=O)n1nc(-c2ccncc2)nc1NCc1ccc(F)cc1` [Cmpd 78, 1-(5-[(4-fluorophenyl)methyl]amino-3-(pyridin-4-yl)-1H-1,2,4-triazol-1-yl)-3-methylbutan-1-one], for which the IC50 was less than 100 nM. `O=C(CCc1ccccc1)n1nc(-c2ccncc2)nc1NCc1ccc(F)cc1` [Cmpd 79, 1-(5-[(4-fluorophenyl)methyl]amino-3-(pyridin-4-yl)-1H-1,2,4-triazol-1-yl)-3-phenylpropan-1-one] showed a half-inhibitory concentration (IC50) of less than 100 nM.
